“Also recorded” adds a separate entry of the source. Where two headings read alike, the source gives them in different places. Where a SMILES comes first, the peptide text is derived from it. Where no end group is shown, it is not given here.
Legend:
thrombin (α-thrombin) [1] = test: thrombin at 1 μM in 1X TBS (10 X dilution of 10 X TBS pH 7.4); conditions: 37°C, up to 2 hours
thrombin [2] = conditions: cited from earlier work
factor Xa = conditions: cited from earlier work
α-thrombin [3] = target: T1, α-thrombin (Homo sapiens, UniProt P00734); test: Inhibition of thrombin-mediated hydrolysis of S2238; format: biochemical
T1 construct: purchased Sigma; Haematologic Technologies; or prepared in house from prothrombin (Enzyme Research Laboratories) with Oxyuranus scutellatus venom
Procedure: […] Reactions were started by addition of thrombin (0.5 nM) and absorbance was monitored for 10 minutes at 405 nm in a microplate reader. The data were fit to competitive or non-competitive models of inhibition using GraphPad Prism 5. In both cases, nonlinear regression was used to fit to the hyperbolic equation: v=Vmaxapp [S]/(Kmapp+[S]) In the case of competitive inhibition Vmaxapp = Vmax and in the case of noncompetitive inhibition Kmapp = Km.
In the case of competitive inhibition the inhibition constant (Ki) was obtained from fitting of: Kmapp = Km(1+[I]/Ki) .
For noncompetitive inhibition Ki was determined by fitting of: Vmaxapp = Vmax/(1+[I]/Ki)
The experiments were repeated three times.

thrombin [4] = target: T2, thrombin (Homo sapiens, UniProt P00734); conditions: 2 h, 37°C, TBS pH 7.4, MALDI MS; for cleavage by thrombin (peptide remaining / digestion): 25 μM peptide, 1 μM thrombin (25:1)
Procedure: Reactions were stopped by freezing at –20°C until analysis. Samples (2 μl) were desalted in C-8 micro-columns (Ziptip-Milipore), washing 3 times with 0.1% TFA and eluting with 60% acetonitrile in water. Washes were diluted with 4 μl 50% acetonitrile and spotted (0.5–1 μl) on MALDI plates followed by addition of matrix solution. After drying, they were injected into the MS instrument and analyzed in reflectron (peptide plus thrombin) or linear (peptide alone) mode.

thrombin (α-thrombin) [5] = target: T3, thrombin (α-thrombin) (Homo sapiens, UniProt P00734); test: Screening for inhibition of serine proteases (fluorogenic substrate hydrolysis); format: biochemical; conditions: 1 μM peptide, pre-incubated 30°C 10 min, mean of three independent experiments in triplicate
T3 construct: purchased Sigma; Haematologic Technologies; or prepared in house from prothrombin (Enzyme Research Laboratories) with Oxyuranus scutellatus venom
Procedure: Linear fits of fluorescence increases as a function of time were verified with the Magellan—Data Analysis Software (Tecan group Ltd), and the slope in arbitrary fluorescence units per second (r^2 > 0.95) was used to calculate hydrolysis rate. Each experiment was performed in triplicate and the mean and standard error of three independent experiments were calculated. The substrate hydrolysis rate in the absence of the peptide was considered as 100% and compared with the remaining enzymatic activity in the presence of the peptide.

α-thrombin [6] = target: T1, α-thrombin; test: Surface plasmon resonance, thrombin binding to immobilized peptide; conditions: 150 mM NaCl
Procedure: Surface plasmon resonance (SPR) was used to measure interaction between immobilized peptides and thrombin using a Biacore T100 instrument. Approximately 500 resonance units of hyalomin-1 biotinylated at Lys1 or its N-terminal cleavage product (01–41) were bound to a neutravidin surface that had been immobilized on C5 chips using the amine coupling procedure. Kinetic measurements were carried out by injecting different concentrations of thrombin in 10 mM HEPES pH 7.4, 150 mM NaCl, 0.05%Tween-20. The chip surface was regenerated using injections of 10 mM glycine pH 2.5. Data were analyzed by global fitting of a 1:1 single state model using the Biacore T100 evaluation software. Binding of γ-thrombin with the same surface was also investigated under similar conditions.

BALB/c mice = conditions: 2.5 mg/kg intravenous, tail transection after 15 min, hemoglobin by absorbance at 540
Procedure: Briefly, BALB/c mice were anesthetized (xylazine and ketamine) and the common carotid artery was isolated for measuring blood flow continuously using a 0.5-V Doppler flow probe coupled to a TS420 flow meter (Thransonic Systems, Ithaca, NY) [21]. Before induction of thrombosis the tail vein was injected with 50 μl of hyalomin-1 (1 and 2.5 mg/kg) or vehicle (PBS). Thrombi were formed by placing a piece of filter paper (1 x 2 mm) saturated with 7.5% FeCl3 on the adventitial surface or the artery for 3 minutes. After washing with normal saline, blood flow was continuously monitored for 60 minutes or until the blood flow dropped to zero for at least 10 seconds. Tail bleeding was performed on anesthetized mice injected intravenously with peptide (2.5 mg/kg) or vehicle alone (PBS) in 100 μl. After 15 minutes, the distal 2 mm segment was removed and the tail was immersed in 40 ml distilled 37°C warmed water. Absorbance at 540 was measured to estimate hemoglobin content.

thrombin [7] = target: T2, thrombin; test: biochemical
Procedure: Inhibition of thrombin-mediated activation of FXI in the presence of long-chain (P700) polyphosphate (polyP) was done in according to Choi et al. [17] by adding 2 μM of polyP to buffer (20 mM Tris HCl, pH 7.4, 150 mM NaCl and 0.1% BSA) followed by different concentrations of peptide (23.4 nM to 600 nM). α-Thrombin (5 nM) and 60 nM of FXI were then added and samples were incubated at 37°C for 35 minutes. Reactions were stopped with 50 nM of the thrombin inhibitor anophelin [18, 19] and polybrene to dissociate complexes with polyP. S2236 (Chromogenix Inc.) was added to a concentration of 250 μM and product formed was read as absorbance at 405 nm for 5–10 minutes in a microplate reader. Results were expressed as the percentage of the maximum activity (mAU/min) in the absence of peptide. Experiments were performed in duplicate.

[8] = 150 mM NaCl, 0.5 nM thrombin, 37°C, pH 7.4, three experiments, read-out: inhibition constant (Ki), competitive model

EPAKPRLPVPGSGRDSERIPVPVD
cleaved bond (thrombin (α-thrombin) [1]): Arg41-Leu42, two hours

YPERDSAKDGNQEKERALLVKVQERYQGNQGDYDEYDQDETTPPPDPTAQTARPRLRQNQD
cleaved bond (thrombin [2]): cleaved upstream of this site at Lys21 | cleaved bond (factor Xa): cleaved by factor Xa at Arg16; also recorded: cleaved by factor Xa at Arg25

DESDYDTYPDDNNDDSGERNGGSEPAKPRLPV [hyalomin-1 (13–44)]
cleaved bond (thrombin (α-thrombin) [1]): Arg41-Leu42, 2 hr

DESDYDTYPDDNNDDSGERNGGSEPAKPRLPV [hyalomin (13–44) sulfated]
cleaved bond (thrombin (α-thrombin) [1]): Arg41-Leu42

YPERDSAKEGNQEQERALHVKVQKRTDGDADYDEYEEDGTTPTPDPTAPTAKPRLRGNKP
cleaved bond (thrombin [2]): Arg54-Leu55; also recorded: cleaved upstream of this site at Lys21 | cleaved bond (factor Xa): cleaved by factor Xa at Arg25; also recorded: cleaved by factor Xa at Arg54; also recorded: cleaved by factor Xa at Arg16

CC[C@H](C)[C@H](NC(=O)[C@H](CCCNC(=N)N)NC(=O)[C@H](CCC(=O)O)NC(=O)[C@H](CO)NC(=O)[C@H](CC(=O)O)NC(=O)[C@H](CCCNC(=N)N)NC(=O)CNC(=O)[C@H](CO)NC(=O)CNC(=O)[C@@H]1CCCN1C(=O)[C@@H](NC(=O)[C@@H]1CCCN1C(=O)[C@H](CC(C)C)NC(=O)[C@H](CCCNC(=N)N)NC(=O)[C@@H]1CCCN1C(=O)[C@H](CCCCN)NC(=O)[C@H](C)NC(=O)[C@@H]1CCCN1C(=O)[C@@H](N)CCC(=O)O)C(C)C)C(=O)N1CCC[C@H]1C(=O)N[C@H](C(=O)N1CCC[C@H]1C(=O)N[C@H](C(=O)N[C@@H](CC(=O)O)C(=O)O)C(C)C)C(C)C [36–59] (H-EPAKPRLPVPGSGRDSERIPVPVD-OH)
Ki (α-thrombin [3]; [8]): 100 ± 2 nM | Ki (α-thrombin [3]; salt concentration 50 mM, read-out: Ki, competitive model): 180 ± 30 nM | cleavage in thrombin-free control (thrombin [4]; 25 μM peptide without thrombin): no cleavage | cleavage by thrombin (peptide remaining / digestion) (thrombin [4]): complete digestion

CC[C@H](C)[C@H](NC(=O)[C@H](CCCNC(=N)N)NC(=O)[C@H](CCC(=O)O)NC(=O)[C@H](CO)NC(=O)[C@H](CC(=O)O)NC(=O)[C@H](CCCNC(=N)N)NC(=O)CNC(=O)[C@H](CO)NC(=O)CNC(=O)[C@@H]1CCCN1C(=O)[C@@H](NC(=O)[C@@H]1CCCN1C(=O)[C@@H](N)CC(C)C)C(C)C)C(=O)N1CCC[C@H]1C(=O)N[C@H](C(=O)N1CCC[C@H]1C(=O)N[C@H](C(=O)N[C@@H](CC(=O)O)C(=O)O)C(C)C)C(C)C [42–59] (H-LPVPGSGRDSERIPVPVD-OH)
Ki (α-thrombin [3]; ionic strength 150 mM, read-out: Ki, non-competitive model): 1700 ± 100 nM | Ki (α-thrombin [3]; salt concentration 50 mM, read-out: Ki, non-competitive model): 1800 ± 100 nM

KPNLQSRSDDGVDESDYDTYPDDNNDDSGERNGGSEPAKPRLPVPGSGRDSERIPVPVD [hyalomin-1]
loss of thrombin control activity in the presence of the peptide (thrombin (α-thrombin) [5]): 72% | Ki (α-thrombin [3]; 50 mM salt, 0.5 nM thrombin, 37°C, read-out: inhibition constant (Ki), competitive model): 0.4 ± 0.1 nM | Ki (α-thrombin [3]; [8]): 11.9 ± 1.8 nM | potency of the inhibitor over incubation time with thrombin (α-thrombin [3]; 800:1 peptide to enzyme (400 nM peptide, 0.5 nM thrombin), 37°C, six hour incubation, 50 μM S2238): diminished in a time-dependent manner | Kd (α-thrombin [6]; SPR, immobilized biotinylated peptide, read-out: calculated dissociation equilibrium constant (KD)): 19 nM | kon (α-thrombin [6]; peptide biotinylated at N-terminal lysine on neutravidin surface, pH 7.4, 1:1 model, read-out: association rate constant (ka)): 1e+06 M⁻¹ s⁻¹ | koff (α-thrombin [6]; peptide biotinylated at N-terminal lysine on neutravidin surface, pH 7.4, 1:1 model, read-out: dissociation rate constant (kd)): 0.02 s⁻¹ | cleavage by thrombin (peptide remaining / digestion) (thrombin [4]): No full-length peptide | tail bleeding (BALB/c mice): significant bleeding | IC50 (thrombin [7]): ~25 nM

KPNLQSRSDDGVDESDYDTYPDDNNDDSGERNGGSEPAKPRLPVPGSGRDSERIPVPVD
cleaved bond (thrombin (α-thrombin) [1]): Arg41-Leu42, two hours
